Where “and” joins values, the source holds several entries; their conditions need not be identical. Equal entries are not always repeated.
Key:
[1] = target: T1, human amylin (hIAPP) (Homo sapiens, UniProt P10997); assay: Thioflavin T (ThT) fluorescence assay of amylin aggregation; assay type: biochemical; details: read-out: IC50 of amylin aggregation inhibition
T1 construct: purchased Bachem USA
T1 sequence (P10997 34-70 limits assumed): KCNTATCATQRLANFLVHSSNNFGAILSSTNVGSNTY

[2] = target: T1, human amylin (hIAPP); assay: as above; assay type: biochemical; details: for inhibition at 10 µM: read-out: ThT inhibition % (mean ± SEM), compound 10 μM, amylin 15 μM, 36 h incubation, 3 trials
Protocol: (§1) A stock solution of amylin (1 mM) (purchased from Bachem USA), peptide sequence: […] amide (with disulfide bond between Cys2 and Cys7), was prepared in 100% hexafluoroisopropyl alcohol (HFIP) (purchased from Sigma-Aldrich) and stored at −20 °C. , Aliquots of amylin peptide were filtered through a 0.22 μm filter from the stock solution and freeze-dried. For kinetic experiments, 15 μM of amylin was prepared in 50 mM Tris-HCl buffer (pH 7.4), as investigated in previous studies by Chaari et al., , Samples of amylin were prepared in the presence or absence of inhibitors. Each compound was dissolved in DMSO and further diluted with the buffer used to solubilize the amylin. The final mixture contained 15 μM amylin, 10 μM of the test compound, 2% DMSO or 15 μM amylin, and 2% DMSO without the compound (negative control). Also 15 μM amylin, 10 μM of oleuropein aglycone and 2% DMSO was used as a positive control. The prepared solutions were incubated under physiological conditions (pH 7.4 and 37 °C) for amylin aggregation. Samples were incubated for 36 h to test for amylin aggregation, and measurements were conducted at different time points.
Amylin aggregation was monitored by characteristic changes in Thioflavin T (ThT) fluorescence intensity. A ThT stock solution (15 μM) was prepared in deionized water at pH 7.4. The amylin samples were mixed with the ThT solution and allowed to incubate. ThT fluorescence was measured using the PerkinElmer model LS 55 fluorescence spectrophotometer (PerkinElmer, USA), with an excitation wavelength of 440 nm and an emission wavelength of 480 nm. ,− The emission and excitation slits were set to 5 nm, and a 1 cm cuvette was used for all experiments. Nonspecific background fluorescence was subtracted from the samples using appropriate blanks in the absence of proteins. Each experiment was performed in triplicate.

[3] = target: T1, human amylin (hIAPP); assay: Kinetic analysis of amylin aggregation (ThT, two-step autocatalytic aggregation model); assay type: biochemical; details: mean ± S.D.; for t 0 (time point when the aggregation starts): 10% of highest ThT fluorescence; for t 1/2 (aggregation halftime): 50% of highest ThT fluorescence; for t 1 (aggregation endpoint): 90% of highest ThT fluorescence; for k / k e (elongation constant) / k n (nucleation constant) / ρ (ratio of kn to k): ThT data, autocatalytic aggregation model
Protocol: Kinetic analysis was performed according to the model of autocatalytic aggregation. According to Sabaté et al., aggregation is a two-step process, comprising nucleation (described by the k n constant) and fibrillation phases (represented by the k e constant). Two constants (k n and k e) are calculated using the eq : 5 f=ρ{e^[(1+ρ)kt]−1}/{1+ρe^[(1+ρ)kt]} where k = k e a (where a represents the initial concentration of the aggregating peptide), f stands for a fraction of the fibrillar form in the system, and ρ denotes the dimensionless ratio of k n to k. The parameters k and ρ were calculated first, then k n and k e.
Data were normalized as a fraction of the highest fluorescence from the three trials and fitted into the model of autocatalytic aggregation. The same procedure was repeated for the remaining trials. The second calculation aimed to find the time parameters of the aggregation process: t 0 (time point when the aggregation starts), t 1/2 (aggregation halftime), and t 1 (aggregation endpoint). t 0, t 1/2, and t 1 were calculated as 10%, 50%, and 90% of the highest fluorescence measurements from the three trials, respectively. All calculations were performed using GraphPad Prism 9.5.1, Statistica 13.3.721.1, and Microsoft Excel 2304.

[4] = target: T1, human amylin (hIAPP); assay: Dynamic light scattering (DLS) assay of amylin aggregation; assay type: biochemical; details: compound 10 μM, amylin 15 μM, 36 h incubation, 3 trials; read-out: DLS inhibition % (mean ± SEM)
Protocol: as §1
DLS (Zetasizer, Malvern) was used at a wavelength of 633 nm to measure the average diffusion coefficient distribution of amylin particles and the aggregation percentage. Samples were diluted 10-fold, and 50 μL was placed into a 96-well plate. The total light scattering intensity at a 90° angle was collected using a 10 s averaging acquisition time. Particle translational diffusion coefficients were calculated from autocorrelated light intensity data (usually 30–40 points) and converted to the hydrodynamic radius (R h) using the Stokes–Einstein equation. A distribution plot of intensity versus R h was calculated using the Sedfit 9.3 analysis software, and intensity-weighted mean R h values were obtained from each peak.

[5] = tested on: Aβ; set-up: method as in Panek et al.; details: ref Panek et al.; cited from earlier work

In the case of `C/C=C1/C(O)OC=C(C(=O)OC)[C@H]1CC(=O)OCCc1ccc(O)c(O)c1` (mixture of isomers) [Oleuropein aglycone, reference compound], the IC50 [1] is reported as 1 µM, the “ThT inhibition % (mean ± SEM)” value ([2]; compound 10 μM, amylin 15 μM, 36 h incubation, 3 trials) is reported as 82.3 ± 2.0% and the “t 0 (time point when the aggregation starts)” value [3] is reported as 10.76 ± 0.25 h. For the same compound, the “t 1/2 (aggregation halftime)” value [3] was 19.67 ± 0.31 h, the “t 1 (aggregation endpoint)” value [3] was 28.83 ± 0.30 h and the k [3] was 0.2366 ± 0.0075 h^–1. The “k e (elongation constant)” value [3] was 15773 ± 650 M^–1h^–1, the “k n (nucleation constant)” value [3] was 0.0022 ± 0.0005 h^–1 and the “ρ (ratio of kn to k)” value [3] was 0.0093 ± 0.0002. The “k e (elongation constant)” value ([3]; listed as oleuropein aglycone) was 15773 M^–1h^–1.

In the case of `CCCC(C)N1CCN(CC(O)CNCc2ccc(OC)cc2)CC1` (stereo not shown) [Compound 1], the inhibition at 10 µM [4] is reported as 19.7 ± 2% and the inhibition at 10 µM [2] is reported as 13.1 ± 1.8%.

`COc1ccc(CNCC(O)CN2CCN(c3ccccc3)CC2)cc1` (stereo not shown) [Compound 2] gave an inhibition at 10 µM [4] of 6.9 ± 0.5% and an inhibition at 10 µM [2] of 5 ± 0.7%.

With `COc1ccc(CNCC(O)CN2CCN(Cc3ccccc3)CC2)cc1` (stereo not shown) [Compound 3] the inhibition at 10 µM [4] was 17.9 ± 1.4% and the inhibition at 10 µM [2] was 8.8 ± 4.9%.

`OC(CNCc1ccccc1)CN1CCN(C(c2ccccc2)c2ccccc2)CC1` (stereo not shown) [Compound 4] showed an inhibition at 10 µM [4] of 20 ± 1.9% and an inhibition at 10 µM [2] of 15.5 ± 0.7%.

`COc1ccc(CNCC(O)CN2CCN(C(c3ccccc3)c3ccccc3)CC2)cc1` (stereo not shown) [Compound 5] showed an inhibition at 10 µM [4] of 19.5 ± 2.2% and an inhibition at 10 µM [2] of 12.1 ± 1.1%.

For `CC(C)(C)c1cccc(CNCC(O)CN2CCN(C(c3ccccc3)c3ccccc3)CC2)c1` (stereo not shown) [Compound 6], the IC50 [1] was 4.11 µM, the inhibition at 10 µM [4] was 30.3 ± 3.1% and the inhibition at 10 µM [2] was > 50%. For the same compound, the “t 0 (time point when the aggregation starts)” value [3] was 8.36 ± 0.56 h, the “t 1/2 (aggregation halftime)” value [3] was 16.61 ± 0.27 h and the “t 1 (aggregation endpoint)” value [3] was 25.27 ± 0.39 h. For the same compound, the k [3] was 0.2488 ± 0.0157 h^–1, the “k e (elongation constant)” value [3] was 16585 M^–1h^–1 and 16585 ± 1051 M^–1h^–1 and the “k n (nucleation constant)” value [3] was 0.0039 ± 0.0009 h^–1. For the same compound, the “ρ (ratio of kn to k)” value [3] was 0.0159±0.0044 and the “inhibition of Aβ aggregation in the ThT assay” value [5] was 77.2%.

For `COc1ccc(CNCC(O)CN2CCN(C(c3ccc(F)cc3)c3ccc(F)cc3)CC2)cc1` (stereo not shown) [Compound 7], the inhibition at 10 µM [4] was 18.6 ± 1.4% and the inhibition at 10 µM [2] was 17 ± 0.7%.

Work on `CCCC(C)N1CCN(CCC(O)CNCc2ccc(OC)cc2)CC1` (stereo not shown) [Compound 8] yielded an inhibition at 10 µM [4] of 20.1 ± 2% and an inhibition at 10 µM [2] of 20.8 ± 1%.

In the case of `COc1ccc(CNCC(O)CCN2CCN(c3ccccc3)CC2)cc1` (stereo not shown) [Compound 9], the inhibition at 10 µM [4] is reported as 10 ± 0.5% and the inhibition at 10 µM [2] is reported as 4.3 ± 0.7%.

— paper PMC12612973, “Inhibition of Human Amylin Aggregation: In Silico and In Vitro Studies” (ACS Omega, 2025)
